# Substitutions are numbered along the chain they refer to.
# Columns and labels:
# [1] = system: E. Coli BL21 (DE3) transformed with LS-EPSPS-PET; assay: Growth (OD) of E. coli strain transformed with LS-EPSPS-PET in glyphosate-containing LB; type: cell-based; conditions: compared with strain with empty vector PET-28a
# Protocol: The LS-EPSPS gene was cloned into the vector PET-28a, and transferred to E. Coli BL21 (DE3), to obtain a transgenic strain. The reading frame of the transgenic strain was expressed under control of the T7 promoter in the PET system.
# The stain transformed with LS-EPSPS-PET or PET-28a (empty vector, control) was incubated in LB, and grown in an LB liquid medium containing Kan at 37° C. when OD600 reached […], until the OD value reached about 0.4. […] These indicate that the LS-EPSPS gene has glyphosate-resistant/tolerant activity.
# EPSPase [2] = assay: Ex-vivo EPSPase activity assay, crude extract; type: biochemical, wide-type Arabidopsis thaliana
# Protocol: (§1) 0.5 g of the seedlings of Ophiopogon japonicus, Liriope spicata, Liriope platyphylla and wide-type Arabidopsis thaliana were weighed, added with 150 ml of an extraction buffer A [containing 100 mmol/L Tris pH 7.5, 1 mmol/L EDTA, 10% (V/V) glycerol, 1 mg/L BSA, 10 mmol/L Vitamin C (Vc), 1 mmol/L benzamidine, 5 mmol/L DTT, and 20 mg/ml PVPP], ground and homogenized, filtered through 6 layers of gauze, and centrifuged at 12000 rpm and 4° C. […] Following the method as described by Lanzetta and Alvarez (1979), the reaction was developed for 30 min by adding 800 μl of malachite green hydrochloride, and then 100 μl of a 34% sodium citrate solution was added. After 30 min, the OD660 value was determined at 660 nm on a spectrophotometer. […] Logistic regression analysis was performed and the ED50 was calculated.
# EPSPase [3] = molecular target: T1, EPSPase (Liriope muscari (Liriope platyphylla), UniProt A0A0N9BED7); assay: Ex-vivo EPSPase activity assay, crude extract; type: biochemical; conditions: 25° C., 15 min
# T1 sequence (A0A0N9BED7 66-518): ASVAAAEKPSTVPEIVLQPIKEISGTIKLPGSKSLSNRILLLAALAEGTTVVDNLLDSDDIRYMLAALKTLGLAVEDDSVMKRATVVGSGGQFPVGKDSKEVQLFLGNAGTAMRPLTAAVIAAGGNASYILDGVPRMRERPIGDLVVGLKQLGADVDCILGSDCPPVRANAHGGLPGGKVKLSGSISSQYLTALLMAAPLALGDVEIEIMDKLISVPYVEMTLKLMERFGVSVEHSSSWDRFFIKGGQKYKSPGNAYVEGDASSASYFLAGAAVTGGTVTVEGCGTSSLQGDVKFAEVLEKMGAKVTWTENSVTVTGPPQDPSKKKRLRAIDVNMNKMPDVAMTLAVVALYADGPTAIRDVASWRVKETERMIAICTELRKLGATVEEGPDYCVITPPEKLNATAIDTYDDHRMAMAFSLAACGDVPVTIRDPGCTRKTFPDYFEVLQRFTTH
# Protocol: as §1
# EPSPase [4] = molecular target: T2, EPSPase (Liriope spicata, UniProt A0A0N9BED5); assay: Ex-vivo EPSPase activity assay, crude extract; type: biochemical; conditions: 25° C., 15 min
# T2 sequence (A0A0N9BED5 66-518): T1 sequence (A0A0N9BED7 66-518) with A74T, S162T, I331V, T404N, G424A
# Protocol: as §1
# EPSPase [5] = molecular target: T3, EPSPase (Ophiopogon japonicus, UniProt A0A0N7E509); assay: Ex-vivo EPSPase activity assay, crude extract; type: biochemical; conditions: 25° C., 15 min
# T3 sequence (A0A0N7E509 64-516): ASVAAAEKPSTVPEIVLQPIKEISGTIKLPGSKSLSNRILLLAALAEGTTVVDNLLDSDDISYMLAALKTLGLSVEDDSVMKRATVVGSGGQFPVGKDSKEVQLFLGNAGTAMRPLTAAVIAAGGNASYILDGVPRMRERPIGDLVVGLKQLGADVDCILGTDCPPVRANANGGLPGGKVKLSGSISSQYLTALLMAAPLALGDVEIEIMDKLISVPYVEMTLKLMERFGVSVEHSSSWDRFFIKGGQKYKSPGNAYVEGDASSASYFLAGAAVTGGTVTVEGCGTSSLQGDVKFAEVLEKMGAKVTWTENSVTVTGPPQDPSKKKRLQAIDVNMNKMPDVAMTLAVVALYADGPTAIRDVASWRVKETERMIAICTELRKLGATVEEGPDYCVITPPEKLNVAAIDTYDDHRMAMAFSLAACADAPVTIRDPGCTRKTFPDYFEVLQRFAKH
# Protocol: as §1
# [6] = system: callus of the control Arabidopsis thaliana; assay: Callus growth on glyphosate-containing MS medium, control; type: cell-based; conditions: two weeks, 25° C.
# Protocol: (§2) The transgenic Arabidopsis thaliana plant was obtained by screening. The stem of the tissue cultured seedling of the non-transgenic and the LS-EPSPS transgenic Arabidopsis thaliana was used as an explant for callus induction in an MS medium containing 2.0 mg/L of 6-BA and 0.1 mg/L of NAA. […] The results were statistically calculated after two weeks.
# [7] = system: callus of the transgenic Arabidopsis thaliana; assay: Callus growth on glyphosate-containing MS medium, LS-EPSPS transgenic; type: cell-based; conditions: two weeks, 25° C.
# Protocol: as §2
smiles,measurement,setting,value
"O=C(O)CNCP(=O)(O)O [glyphosate, N-(phosphonomethyl)glycine]",ED50 value of the strain (logistic regression),[1],greatly higher than that of the strain with the empty vector PET-28a
same,glyphosate concentration at which EPSPase activity declines obviously,"EPSPase [2]; 25° C., 15 min",500 µmol/L
same,EC50,"EPSPase [2]; logistic regression, read-out: ED50 for the EPSPase activity",560 µM
same,glyphosate concentration at which EPSPase activity declines obviously,EPSPase [3],1000 µmol/L
same,glyphosate concentration at which EPSPase activity declines obviously,EPSPase [4],1000 µmol/L
same,glyphosate concentration at which EPSPase activity declines obviously,EPSPase [5],800 µmol/L
same,glyphosate concentration at which callus becomes yellow and gradually mortifies,[6],50 mg·L
same,glyphosate concentration at which callus can still normally grow,[7],600 mg/L
same,glyphosate concentration at which callus is inhibited in growth and becomes brown and yellow,[7],800 mg/L
